Source: ChEMBL document CHEMBL1759876, “PNA containing isocytidine nucleobase: synthesis and recognition of double helical RNA” (Bioorg Med Chem Lett, 2011)

Tests used:
Assay type in all cases: nucleic-acid assay
[1] = system: Hairpin ribozyme RNA; assay: Binding affinity to double helical RNA hairpin HRP3 in sodium acetate buffer at pH 5.5
[2] = system: Hairpin ribozyme RNA; assay: Binding affinity to double helical RNA hairpin HRP4 in sodium acetate buffer at pH 5.5
[3] = system: Hairpin ribozyme RNA; assay: Binding affinity to double helical RNA hairpin HRP2 in sodium acetate buffer at pH 5.5
[4] = system: Hairpin ribozyme RNA; assay: Binding affinity to double helical RNA hairpin HRP1 in sodium acetate buffer at pH 5.5

Q: Which results are given for `Cc1cn(CC(=O)N(CCNC(=O)CN(CCNC(=O)CN(CCNC(=O)CN(CCNC(=O)CN(CCNC(=O)[C@@H](N)CCCCN)C(=O)Cn2ccc(N)nc2=O)C(=O)Cn2cc(C)c(=O)[nH]c2=O)C(=O)Cn2ccc(N)nc2=O)C(=O)Cn2cnc3ncnc(N)c32)CC(=O)NCCN(CC(N)=O)C(=O)Cn2ccc(N)nc2=O)c(=O)[nH]c1=O`?
A: Ka [1]: 0.7 ×10⁶ /M; Ka [2]: 0.05 ×10⁶ /M; Ka [3]: 1.6 ×10⁶ /M; Ka [4]: 6 ×10⁶ /M

Q: How did the Ka [1] turn out when `Cc1cn(CC(=O)N(CCNC(=O)CN(CCNC(=O)CN(CCNC(=O)CN(CCNC(=O)[C@@H](N)CCCCN)C(=O)Cn2ccc(N)nc2=O)C(=O)Cn2cc(C)c(=O)[nH]c2=O)C(=O)Cn2ccc(N)nc2=O)CC(=O)NCCN(CC(=O)NCCN(CC(N)=O)C(=O)Cn2ccc(N)nc2=O)C(=O)Cn2cc(C)c(=O)[nH]c2=O)c(N)nc1=O` was run?
A: 1.01 ×10⁶ /M

Q: What about the Ka [2] of the same compound?
A: 0.77 ×10⁶ /M

Q: What about the Ka [3] of the same compound?
A: 0.82 ×10⁶ /M

Q: What about the Ka [4] of the same compound?
A: 0.51 ×10⁶ /M

Q: For `Cc1cn(CC(=O)N(CCNC(=O)CN(CCNC(=O)CN(CCNC(=O)CN(CCNC(=O)CN(CCNC(=O)[C@@H](N)CCCCN)C(=O)Cn2ccc(N)nc2=O)C(=O)Cn2cc(C)c(=O)[nH]c2=O)C(=O)Cn2ccc(N)nc2=O)C(=O)Cn2cc(C)c(=O)[nH]c2=O)CC(=O)NCCN(CC(N)=O)C(=O)Cn2ccc(N)nc2=O)c(=O)[nH]c1=O`, which Ka [1] is on record?
A: 0.5 ×10⁶ /M

Q: What about the Ka [2] of the same compound?
A: 0.02 ×10⁶ /M

Q: And the Ka [3]?
A: 47 ×10⁶ /M

Q: What about the Ka [4] of the same compound?
A: 2.7 ×10⁶ /M

Q: With `Cc1cn(CC(=O)N(CCNC(=O)CN(CCNC(=O)CN(CCNC(=O)CN(CCNC(=O)CN(CCNC(=O)[C@@H](N)CCCCN)C(=O)Cn2ccc(N)nc2=O)C(=O)Cn2cc(C)c(=O)[nH]c2=O)C(=O)Cn2ccc(N)nc2=O)C(=O)Cn2ccc(N)nc2=O)CC(=O)NCCN(CC(N)=O)C(=O)Cn2ccc(N)nc2=O)c(=O)[nH]c1=O` as the compound, how does the Ka [1] read?
A: 0.5 ×10⁶ /M

Q: What about the Ka [2] of the same compound?
A: 0.2 ×10⁶ /M

Q: And the Ka [3]?
A: 0.4 ×10⁶ /M

Q: And the Ka [4]?
A: 84 ×10⁶ /M

Q: Which Ka [1] does the source give for `Cc1cn(CC(=O)N(CCNC(=O)CN(CCNC(=O)CN(CCNC(=O)CN(CCNC(=O)CN(CCNC(=O)[C@@H](N)CCCCN)C(=O)Cn2ccc(N)nc2=O)C(=O)Cn2cc(C)c(=O)[nH]c2=O)C(=O)Cn2ccc(N)nc2=O)C(=O)Cn2cnc3nc(N)[nH]c(=O)c32)CC(=O)NCCN(CC(N)=O)C(=O)Cn2ccc(N)nc2=O)c(=O)[nH]c1=O` here?
A: 0.2 ×10⁶ /M

Q: What about the Ka [2] of the same compound?
A: 0.09 ×10⁶ /M

Q: What about the Ka [3] of the same compound?
A: 0.4 ×10⁶ /M

Q: What about the Ka [4] of the same compound?
A: 1.5 ×10⁶ /M
